We go through 1 compound from patent EP1501797B1, “3-(SUBSTITUTED AMINO)-1H-INDOLE-2-CARBOXYLIC ACID ESTER AND 3-(SUBSTITUTED AMINO)-BENZO[B]THIOPHENE-2-CARBOXYLIC ACID ESTER DERIVATIVES AS INTERLEUKIN-4 GENE EXPRESSION INHIBITORS” (Aventis Pharmaceuticals Inc., priority 2002, dated 2003).

One assay deals with human IL-13 promoter. Briefly: IL-13 Luc assay in Jurkat cells (2.1IL-13 Luc). It counts as cell-based. The following applies: Jurkat cell line; concentration not given; 480 min.
For the next assay, the system named is IL-4. Description: Human primary Th2 cells, anti-CD3/anti-CD28 activated, IL-4 ELISA. The class given is cell-based. As for the experimental part:
Briefly, CD4^+CD45RA^+ T cells, isolated from donor peripheral blood mononuclear cells of healthy donors, are educated in the presence of anti-CD3/CD28 antibodies and various growth factors to obtain either a Thl-like or Th2-like phenotypes as determined by the known cytokine profiles of these two cell types.
Peripheral blood mononuclear cells (PBMC) are prepared from human blood by Ficoll-Hypacque (Pharmacia). The cells are washed two times in Hanks balanced salt solution (HBSS) and counted.
Naive T cells (CD4^+/CD45RA ) are prepared by negative selection method using following antibodies and Dynabeads: anti-CD8, anti-HLA-DR, (where HLA means human leucocyte antigen) anti-CD14, anti-CD16, anti-CD19, anti-CD45RO antibodies (all from R&D Systems, 1-2 µg/ml) are added to the cells, and the cells are kept on ice for 30 min. The cells are washed two times in HBSS, and goat anti- mouse Ig-beads, (bead:target ratio, 5:1) are added. The cells and beads are slowly rotated at 4°C for 20 min. (following the protocol supplied from Dynal). The supernatant is removed and fresh goat anti-mouse Ig-beads are added to the supernatant, which is slowly rotated at 4°C for 20 min. The cells are counted and phenotypically characterized by flow cytometric analysis.
CD4^+/CD45RA^+ cells at a density of 10^6/ml in RPMI, is prepared and added to RPMI medium containing 10% Hyclone serum/ glutamine and 1-2 µg/ml anti-CD28 Ab. The cells are split in two aliquots. For Th1 cells: anti-IL-4 Ab (1-2 µg/ml), IFN-γ (1 µg/ml, or 5000 units/ml) are added to the wells. For Th2 cells: IL-4 (100-200 ng/ml), anti-IFN-γ neutralizing Ab (1-2 µg/ml), anti-IL-12 neutralizing Ab (1-2 µg/ml) are added into the wells. […] The cells are transferred to fresh wells and grown in 200 units/ml IL-2 for 2 weeks by feeding them every other day with IL-2 containing medium and splitting the cultures 1:2 or 1:3 as needed. The degree of polarization is determined by intracellular staining of cells with anti-IFN-γ and anti-IL-4 antibodies from Pharmingen, and using flow cytometry from Becton Dickinson (BD), according to manufacturers description. The cells are stimulated with PHA and alloantigens at day 14 and 28 as described below. Eight days after the second allostimulation the cells can be used for compound screening or frozen for future use. For compound testing, large quantities of Th1 and Th2 cells derived from a given donor (NYTh1 and NYTh2) were expanded and frozen as aliquots in liquid nitrogen. The cells are thawed and cultured as and when needed. The thawed cells are stimulated with alloantigen/PHA combination. The cells are used for compound screening after 8-10 days in culture.
Re-stimulation by allogeneic cells: Human PBMCs, to be used as alloantigens, are isolated from freshly drawn blood by Ficoll separation. […] Cells are counted and diluted to a final concentration of 2 x 10^6/ml in medium containing 10 µg/ml PHA and 200 units/ml IL-2.
Ninetysix well Falcon tissue culture plates (Fisher Scientific) are coated with 100 microliters per well of 10 µg/ml anti-CD3 (PharMingen) antibody in phosphate buffered saline (PBS) and stored at 4°C one day before the experiment.
On the day of assay, anti-CD3 antibody coated plates are washed with PBS once to remove all soluble anti-CD3 antibody. […] All compounds and controls are assayed in triplicates.

Usually IC50 stands for the point on the concentration scale where inhibition reaches its midpoint.

A value given as a limit tells only on which side of the number the result lay.

Method for human IL-13 promoter: Jurkats containing 2.1IL-13 Luc (monoclonal lines) were plated at a density of 50,000 cells in 120 µL per well, and grown for 16 hours. The cultures were then stimulated with 10 ng/ml of Phorbol 12-myristate 13-acetate (PMA) and 1.0 µM calcium ionophore A23187 in 10 µL of media for 8 hours. The stimulation process was terminated by the addition of 50 µL s of 1x lysis buffer (25 mM Tris Phosphate, pH 7.8, 2.0 mM dithiothritol (DTT), 2 .0 mM ethylenediamine tetra-acetic acid (EDTA), 100 ml/L glycerol, 1.0% Triton X-100 (v/v)). The cells were incubated in the presence of lysis buffer for 5 minutes, pipetted up and down, 5x, to ensure complete lysis. A 100 µL aliquot of the cell lysate was transferred to white luminometer plates (Dynatech) and assayed for luciferase activity with a Dynatech luminometer.

Take `O=C(O)c1[nH]c2ccccc2c1Nc1ccncc1` [Example 28, 3-(4-Pyridinylamino)-1H-indole-2-carboxylic acid]: the “2.1-IL-13 - Luc (% of control)” value in the assay with human IL-13 promoter is reported as 50 ± 12 % of control. In addition, the “IL-4 PROTEIN Exp #2” value with IL-4 (10 µM, 18 hrs, ELISA of culture supernatants, stimulated control 625.0+/- 23) worked out at 286.2 ± 19 pg/mL. For the same compound, the activity at 0.01 µM with IL-4 (Homo sapiens, 0.01 µM, 48 hr, read-out: IL-4 (% control) mean) was found to be 102%. For the same compound, the activity at 0.03 µM in the assay on IL-4 (Homo sapiens, 0.03 µM, 48 hr, read-out: IL-4 (% control) mean) turned out to be 65.3%. Besides, the activity at 0.1 µM in the assay with IL-4 (Homo sapiens, 0.1 µM, 48 hr, read-out: IL-4 (% control) mean) worked out at 59.8%. In the assay on IL-4 (Homo sapiens, 0.3 µM, 48 hr, read-out: IL-4 (% control) mean), the activity at 0.3 µM amounted to 45%. The activity at 1 µM in the assay with IL-4 (Homo sapiens, 1 µM, 48 hr, read-out: IL-4 (% control) mean) worked out at 42.5%. Further, the activity at 3 µM with IL-4 (Homo sapiens, 3 µM, 48 hr, read-out: IL-4 (% control) mean) stood at 36.4%. Also, the activity at 10 µM in the assay on IL-4 (Homo sapiens, 10 µM, 48 hr, read-out: IL-4 (% control) mean) was 30.8%. Moreover, the IC50 in the assay on IL-4 (Human primary Th2 cells, combined data from 10 different experiments) was found to be 240 nM. In the assay on IL-4 (Human primary Th2 cells, ratio of IC50), the “IFN-γ/ IL-4 Ratio” value is over 41.
